This is an account of results in patent publication US5907038A, “Azepanes” (Hoffmann-La Roche Inc., priority 1995, dated 1999).

The structures appear in SMILES notation. Counter-ions that a name gives are not always drawn.

The subject of one experiment is Mouse Hair Follicle. As to the kind of experiment: Cell proliferation in cultured mouse hair follicles (3H-thymidine incorporation, DNA synthesis). The conditions noted are these: for Emax: 3H-thymidine incorporation as percentage of control, whisker follicles of 4-day-old CD-1 mice, read-out: Mouse Hair Follicle DNA Synthesis Maximal Stimulation; for EC50: concentration giving 50% of the maximal stimulation of DNA synthesis. It counts as cell-based, mouse (CD-1). As for the experimental part:
C: Cell proliferation in cultured mouse hair follicles Mouse whisker follicles were isolated and cultured according to the method described by Buhl et al., J. Invest. Dermatol. 92, 315-320 (1989). Whisker pads were removed from 4-day-old CD-1 mice and vibrissae were carefully separated from the surrounding tissue with forceps under a dissecting microscope. Four hair follicles were incubated at 37° C. in 2 cm^2 wells in 1 ml of M199 medium containing 20% fetal bovine serum, in the presence or absence of test compound at varying concentrations. Each treatment group consisted of four wells. After 1 day of culture. ^3 H-thymidine was added to the wells to a final concentration of 5 μCi/ml and the follicles were incubated for a further three days. The follicles were then washed with phosphate-buffered saline and incorporated radioactivity was solubilized by addition of 0.5 ml of 1.0M NaOH and incubation for 18 h at 37° C. An aliquot of the alkali extracted was taken for measurement of radioactivity and results were expressed as dpm/follicle. Calculation of maximal stimulation and ED50 values The hair follicle ^3 H-thymidine incorporation values (dpm/follicle), obtained as described above, were then expressed as a percentage of control levels as follows: % control DNA synthesis for test compound=((treatment dpm/follicle)/(control dpm/follicle))×100 The dose-response relationship for each compound was then used to determine: 1) the maximal stimulation of DNA synthesis obtained for that compound, expressed as a percentage of control levels, and 2) the ED50 value, or the concentration (μM) of compound that gave rise to 50% of the maximal stimulation of DNA synthesis.

A further experiment has as its target protein kinase C (PKC). The experiment can be described thus: Inhibition of protein kinase C (PKC) (isolated enzyme). The format is biochemical. The settings on record: partially purified PKC from swine brain; histone H1 substrate; 32° C., 2 minutes; read-out: IC50 (Test Procedure A). As for the experimental part: A: Inhibition of protein kinase C (PKC) (isolated enzyme): Protein kinase C (PKC) activity is determined by measuring the transfer of ^32 P-labelled phosphate from ^32 P-g-ATP ([…]) to histone H1 ([…]) as the substrate. Partially purified PKC from swine brain is used as the enzyme source [DEAE chromatography according to the method of U. Kikkawa et al. (Methods Enzymol. 99, 288, 1983)]. Activation of the PKC is effected by phospholipid vesicle prepared by ultrasound treatment of a mixture of 0.05 ml of phosphatidylserine (10 mg/ml) and 0.005 ml of diolein (10 mg/ml) in 5 ml of Tris-HCl buffer (20 mM, pH 7.4). The test substances are used in dimethyl sulphoxide (DMSO)/buffer in the concentration range […]. The test is started by the addition of enzyme; after incubation at 32° C. for 2 minutes the reaction is stopped by the addition of 20% trichloroacetic acid (with 1% SDS and 1% sodium pyrophosphate). The precipitated radioactive histone protein is separated from excess ATP by filtration over nitrocellulose membranes and the radioactivity on the filter is measured in a scintillation counter. The inhibitory activity of the test substance is given as the micromolar concentration which is required to reduce the PKC activity by 50% ([…]).

In experiment [1] the target is cAMP-dependent protein kinase (PKA). The experiment can be described thus: Inhibition of cAMP-dependent protein kinase (PKA). It counts as biochemical. The conditions noted are these: partially purified PKA from swine brain; histone H1 substrate; cyclic AMP activation; 32° C., 2 minutes; read-out: IC50 (Test Procedure B). How it is done: B: Inhibition of cAMP-dependent protein kinase (PKA): PKA activity is determined by measuring the transfer of ^32 P-labelled phosphate from ^32 P-g-ATP ([…]) to histone H1 ([…]) as the substrate. Partially purified PKA from swine brain is used as the enzyme source [DEAE chromatography according to the method of U. Kikkawa et al. (Methods Enzymol. 99, 288, 1983)]. Activation of the PKA is effected by cyclic AMP (2 mM) in Tris-HCl buffer (20 mM, pH 7.4). The test substances are used in dimethyl sulfoxide (DMSO)/buffer in the concentration range […]. The test is started by the addition of enzyme; after incubation at 32° C. for 2 minutes the reaction is stopped by the addition of 20% trichloroacetic acid (with 1% SDS and 1% sodium pyrophosphate). The precipitated radioactive histone protein is separated from excess ATP by filtration over nitrocellulose membranes and the radioactivity on the filter is measured in a scintillation counter. The inhibitory activity of the test substance is given as the micromolar concentration which is required to reduce the PKA activity by 50% ([…]).

In the case of `O=C(N[C@@H]1CNCCC[C@H]1OC(=O)c1ccc(O)cc1)c1ccc(OC(=O)c2c(O)cccc2O)cc1` [II/1, 4-Hydroxy-benzoic acid (3R,4R)-3-[4-(2,6-dihydroxy-benzoyloxy)-benzoylamino]-azepan-4-yl ester trifluoroacetate (1:1)], in the experiment on Mouse Hair Follicle, the Emax came out at 468 ± 26% and the EC50 was 10 µM. Moreover, the IC50 at protein kinase C (PKC) came out at 30 µM. In addition, the IC50 in experiment [1] was 0.038 µM.
Take `COc1cc2c(O)cccc2cc1C(=O)O[C@@H]1CCCNC[C@H]1NC(=O)c1ccc(O)cc1` [I/19, 5-Hydroxy-3-methoxy-naphthalene-2-carboxylic acid (3R,4R)-3-(4-hydroxy-benzoylamino)-azepan-4-yl ester trifluoroacetate (1:1)]: in the experiment with Mouse Hair Follicle, the Emax amounted to 371 ± 50% and the EC50 came out at 30 µM. The IC50 on protein kinase C (PKC) is 24 µM. Also, in experiment [1], the IC50 amounted to 0.041 µM.
Consider `O=C(N[C@@H]1CNCCC[C@H]1OC(=O)c1ccc(S(=O)(=O)Oc2ccccc2O)cc1)c1ccc(O)cc1` [I/28, 4-(2-Hydroxy-phenoxysulfonyl)-benzoic acid (3R,4R)-3-(4-hydroxy-benzoylamino)-azepan-4-yl ester hydrochloride (1:1)], for which, in the experiment on Mouse Hair Follicle, the Emax came out at 349 ± 25% and the EC50 was found to be 40 µM.
As to `CN(C(=O)c1ccccc1O)c1ccc(C(=O)O[C@@H]2CCCNC[C@H]2NC(=O)c2ccc(O)cc2)cc1` [I/25, 4-[(2-Hydroxy-benzoyl)-methyl-amino]-benzoic acid (3R,4R)-3-(4-hydroxy-benzoylamino)-azepan-4-yl ester trifluoroacetate (1:1)], the IC50 is 26 µM on protein kinase C (PKC) and 1.9 µM in experiment [1].
With `O=C(N[C@@H]1CNCCC[C@H]1OC(=O)c1ccc(O)cc1)c1ccc(O)cc1` [III/1, 4-Hydroxy-benzoic acid (3R,4R)-3-(4-hydroxy-benzoylamino)-azepan-4-yl ester hydrochloride (1:1)], the Emax in the experiment with Mouse Hair Follicle was 534 ± 52%. Also, in the experiment on Mouse Hair Follicle, the EC50 came out at 5 µM. The IC50 was 10 µM at protein kinase C (PKC) and 0.026 µM in experiment [1].
Regarding `O=C(N[C@@H]1CNCCC[C@H]1OC(=O)c1ccc(O)c(O)c1)c1ccc(O)cc1` [I/15, 3,4-Dihydroxy-benzoic acid (3R,4R)-3-(4-hydroxy-benzoylamino)-azepan-4-yl ester trifluoroacetate (1:1)], the IC50 at protein kinase C (PKC) amounted to 8.8 µM; in experiment [1], 0.07 µM.
